Data published in the supplement of paper PMC10307832.

Columns and labels:
Experiment in all cases: relative viability (nuclei count vs DMSO), 5 days (fraction); higher = more cells survive
Ruboxistaurin + Olaparib = compound: CN(C)C[C@@H]1CCn2cc(c3ccccc32)C2=C(C(=O)NC2=O)c2cn(c3ccccc23)CCO1 [Ruboxistaurin] + O=C(c1cc(Cc2n[nH]c(=O)c3ccccc23)ccc1F)N1CCN(C(=O)C2CC2)CC1 [Olaparib] (partner 8 µM)
In short: (§1)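 Relative viability divides the nuclei count in treated wells by that in vehicle wells. Lung cancer cell lines were seeded in 1536-well plates, dosed by pin tool the next day, and fixed and stained after 5 days in one step with final 0.05% Triton X-100, 1% formaldehyde and 1 ug/ml Hoechst. Dosing was a single drug or a fixed anchor-drug dose plus five library-drug doses (not always all listed) in √10 steps, and values are medians of duplicate plates imaged at 4×.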

[1] = compound: CN(C)C[C@@H]1CCn2cc(c3ccccc32)C2=C(C(=O)NC2=O)c2cn(c3ccccc23)CCO1 [Ruboxistaurin] + CS(=O)(=O)N1CCN(Cc2cc3nc(-c4cccc5[nH]ncc45)nc(N4CCOCC4)c3s2)CC1 [Pictilisib] (partner 1 µM)
In short: as §1

Ruboxistaurin + AZD7762 = compound: CN(C)C[C@@H]1CCn2cc(c3ccccc32)C2=C(C(=O)NC2=O)c2cn(c3ccccc23)CCO1 [Ruboxistaurin] + NC(=O)Nc1cc(-c2cccc(F)c2)sc1C(=O)N[C@H]1CCCNC1 [AZD7762] (partner 0.2 µM)
In short: as §1

[2] = compound: CN(C)C[C@@H]1CCn2cc(c3ccccc32)C2=C(C(=O)NC2=O)c2cn(c3ccccc23)CCO1 [Ruboxistaurin] + CC(=O)Nc1cccc(-n2c(=O)n(C3CC3)c(=O)c3c(Nc4ccc(I)cc4F)n(C)c(=O)c(C)c32)c1 [Trametinib] (partner 0.02 µM)
In short: as §1

[3] = compound: CN(C)C[C@@H]1CCn2cc(c3ccccc32)C2=C(C(=O)NC2=O)c2cn(c3ccccc23)CCO1 [Ruboxistaurin] + C[C@@H](Oc1cc(-c2cnn(C3CCNCC3)c2)cnc1N)c1c(Cl)ccc(F)c1Cl [Crizotinib] (partner 1 µM)
In short: as §1

Cell Line | relative viability (Ruboxistaurin + Olaparib; first compound 0.08 µM) | relative viability (Ruboxistaurin + Olaparib; first compound 0.8 µM) | relative viability (Ruboxistaurin + Olaparib; first compound 2.53 µM) | relative viability (Ruboxistaurin + Olaparib; first compound 8 µM) | relative viability ([1]; first compound 0.08 µM) | relative viability ([1]; first compound 2.53 µM) | relative viability ([1]; first compound 8 µM) | relative viability (Ruboxistaurin + AZD7762; first compound 0.08 µM) | relative viability (Ruboxistaurin + AZD7762; first compound 0.8 µM) | relative viability (Ruboxistaurin + AZD7762; first compound 2.53 µM) | relative viability (Ruboxistaurin + AZD7762; first compound 8 µM) | relative viability ([2]; first compound 0.08 µM) | relative viability ([2]; first compound 0.8 µM) | relative viability ([2]; first compound 2.53 µM) | relative viability ([2]; first compound 8 µM) | relative viability ([3]; first compound 0.08 µM) | relative viability ([3]; first compound 2.53 µM) | relative viability ([3]; first compound 8 µM) | relative viability ([1]; first compound 0.8 µM) | relative viability ([3]; first compound 0.8 µM)
LCLC-97TM1 | 0.355 | 0.334 | 0.352 | 0.341 | 0.221 | 0.161 | 0.127 | 0.268 | 0.297 | 0.442 | 0.416 | 0.207 | 0.141 | 0.203 | 0.154 | 0.358 | 0.474 | 0.404 | – | –
NCI-H2170 | 0.659 | 0.499 | 0.588 | 0.534 | 0.301 | 0.322 | 0.253 | 0.901 | 0.783 | 0.95 | 0.964 | 0.932 | 0.828 | 0.931 | 0.928 | 1.15 | 1.2 | 1.21 | 0.256 | 1.13
NCI-H1993 | 1.01 | 0.959 | 1.19 | 0.538 | 0.828 | 0.763 | 0.697 | 0.958 | 0.57 | 0.93 | 0.296 | 0.486 | 0.43 | 0.51 | 0.467 | 0.88 | 0.944 | 0.708 | 0.742 | 0.726
NCI-H460 | 0.461 | 0.398 | 0.415 | 0.391 | 0.378 | 0.371 | 0.325 | 0.652 | 0.669 | 0.751 | 0.574 | 0.225 | 0.113 | 0.14 | 0.13 | 0.772 | 1.02 | 0.537 | 0.256 | 0.822
NCI-H1975 | 0.882 | 0.784 | 0.788 | 0.713 | 0.302 | 0.252 | 0.211 | 0.784 | 0.639 | 0.686 | 0.601 | 0.573 | 0.336 | 0.416 | 0.331 | 0.954 | 0.954 | 0.862 | 0.235 | 0.846
RERF-LC-KJ | 0.938 | 0.804 | 0.942 | 0.709 | 0.508 | 0.472 | 0.359 | 1.05 | 1.04 | 0.982 | 1.19 | 0.932 | 0.867 | 0.836 | 0.857 | 0.811 | 0.812 | 0.926 | 0.499 | 0.766
NCI-H322M | 0.764 | 0.675 | 0.805 | 0.329 | 0.553 | 0.432 | 0.385 | 0.56 | 0.564 | 0.573 | 0.475 | 0.538 | 0.477 | 0.535 | 0.404 | 0.96 | 0.949 | 1.11 | 0.484 | 0.863
NCI-H1651 | 0.178 | 0.193 | 0.191 | 0.182 | 0.63 | 0.502 | 0.624 | 0.495 | 0.476 | 0.45 | 0.421 | 0.891 | 0.736 | 0.805 | 0.858 | 0.882 | 0.911 | 0.911 | 0.531 | 0.883
HARA | 1.01 | 0.895 | 0.819 | 0.538 | 0.431 | 0.325 | 0.137 | 0.346 | 0.525 | 0.339 | 0.336 | 0.674 | 0.636 | 0.653 | 0.684 | 1.07 | 1.18 | 1.03 | 0.327 | 0.919
H3255 | 0.613 | 0.574 | 0.592 | 0.655 | 0.566 | 0.498 | 0.462 | 1.05 | 0.984 | 0.924 | 0.97 | 0.635 | 0.479 | 0.644 | 0.536 | 1.01 | 0.89 | 0.809 | 0.521 | 0.835
NCI-H441 | 0.498 | 0.532 | 0.643 | 0.643 | 0.475 | 0.566 | 0.356 | 1.08 | 1.1 | 1.15 | 1.34 | 0.523 | 0.453 | 0.529 | 0.366 | 0.787 | 0.771 | 0.636 | 0.392 | 0.708
CAL-12T | 0.749 | 0.704 | 0.901 | 0.751 | 0.482 | 0.395 | 0.386 | 0.691 | 0.661 | 0.748 | 0.65 | 0.303 | 0.347 | 0.323 | 0.399 | 0.585 | 0.751 | 0.746 | 0.349 | 0.491
NCI-H1792 | 0.517 | 0.453 | 0.287 | 0.414 | 0.258 | 0.246 | 0.233 | 0.775 | 0.576 | 0.533 | 0.389 | 0.646 | 0.336 | 0.446 | 0.41 | 1.05 | 0.966 | 1.01 | 0.231 | 0.956
NCI-H1437 | 0.661 | 0.613 | 0.666 | 0.712 | 0.488 | 0.383 | 0.305 | 1.18 | 1.06 | 1.16 | 1.17 | 0.517 | 0.526 | 0.577 | 0.477 | 0.984 | 0.958 | 1.08 | 0.388 | 0.829
HOP-62 | 0.499 | 0.443 | 0.541 | 0.611 | 0.732 | 0.535 | 0.546 | 0.779 | 0.694 | 0.875 | 0.894 | 0.401 | 0.33 | 0.361 | 0.361 | 0.882 | 0.741 | 1.05 | 0.755 | 1.05
NCI-H1793 | 0.875 | – | 1.17 | 0.873 | 0.454 | 0.478 | 0.316 | 0.654 | – | 0.476 | 0.339 | 0.444 | – | 0.497 | 0.517 | – | – | – | 0.288 | –
